For this assay, the target named is T1, Androgen receptor (Homo sapiens, UniProt P10275).
T1 sequence (P10275 whole entry): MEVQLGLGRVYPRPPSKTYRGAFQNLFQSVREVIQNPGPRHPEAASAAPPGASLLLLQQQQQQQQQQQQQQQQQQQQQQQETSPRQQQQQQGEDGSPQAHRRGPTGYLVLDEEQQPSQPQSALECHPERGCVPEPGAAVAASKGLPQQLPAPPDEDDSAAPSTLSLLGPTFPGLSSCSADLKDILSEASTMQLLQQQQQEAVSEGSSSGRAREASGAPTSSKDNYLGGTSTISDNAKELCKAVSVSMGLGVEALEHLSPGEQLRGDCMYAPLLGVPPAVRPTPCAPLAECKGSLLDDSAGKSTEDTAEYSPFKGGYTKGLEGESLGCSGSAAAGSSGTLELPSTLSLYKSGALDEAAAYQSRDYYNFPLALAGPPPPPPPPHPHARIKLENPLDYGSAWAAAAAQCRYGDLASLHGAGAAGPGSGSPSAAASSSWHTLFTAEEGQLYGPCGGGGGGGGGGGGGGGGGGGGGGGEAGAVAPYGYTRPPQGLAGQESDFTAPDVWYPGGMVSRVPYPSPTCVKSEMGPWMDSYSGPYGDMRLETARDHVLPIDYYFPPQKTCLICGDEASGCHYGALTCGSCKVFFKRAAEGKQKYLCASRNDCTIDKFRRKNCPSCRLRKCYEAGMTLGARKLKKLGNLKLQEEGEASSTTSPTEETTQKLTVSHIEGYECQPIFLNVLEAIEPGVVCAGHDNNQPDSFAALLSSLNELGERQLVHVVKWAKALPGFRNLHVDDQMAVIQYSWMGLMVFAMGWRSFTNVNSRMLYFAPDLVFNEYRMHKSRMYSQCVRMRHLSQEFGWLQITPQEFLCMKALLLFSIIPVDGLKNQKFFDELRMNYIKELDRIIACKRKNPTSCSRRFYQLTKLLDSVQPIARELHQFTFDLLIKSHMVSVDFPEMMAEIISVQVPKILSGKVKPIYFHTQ
Briefly: Binding Assay: The test was carried out as in 1., with the following modifications: cytosol from androgen receptor-expressing insect cells (Hi5) was used, and the reference substance was 3H-testosterone.The results of the binding tests and the ratio of the competition factors CF(PR) and CR(MR) are shown in Table 1, which for comparison also shows receptor binding values of drospirenone as ….

Regarding `C[C@]12CC[C@H]3[C@@H](CC4(CC4)C4=CC(=O)CC[C@@H]43)[C@@H]1CC[C@@]21C=CC(=O)O1`, the IC50 was 0.037 µM.

For `CC[C@]12CC[C@H]3[C@@H](CC4(CC4)C4=CC(=O)CC[C@@H]43)[C@@H]1CC[C@@]21C=CC(=O)O1`, the IC50 was determined as 0.042 µM.

The IC50 is the concentration at which inhibition is half-maximal.

Values taken from ChEMBL document CHEMBL3639292, “17-hydroxy-19-nor-21-carboxylic acid-steroid Œ=-lactone derivative, use thereof, and medicament containing the derivative” (2015).
